Measurements taken from patent US20240150358A1, “PURINES AND METHODS OF THEIR USE” (Kineta, Inc., priority 2020, published 2024).

molecular target: full-length human PIKFYVE (Homo sapiens (Human), UniProt Q9Y2I7, L932S/Q1183K/Q995L/S1033A/S696N/T998S); assay: PIKfyve biochemical assay (ADP-Glo Kinase assay, Carna Biosciences); conditions: ADP-Glo, GST-PIKFYVE, 10 μM to 3 nM; read-out: hPIKfyve IC50
Procedure: (§1) PIKfyve Biochemical Assay. The biochemical PIKFyve inhibition assays were run by Carna Biosciences according to proprietary methodology based on the Promega ADP-Glo™ Kinase assay. […] GST-PIKFYVE was purified by using glutathione sepharose chromatography and used in an ADP-Glo™ Kinase assay (Promega). Reactions were set up by adding the test compound solution, substrate solution, ATP solution and kinase solution, each at 4× final concentrations. Reactions were prepared with assay buffer (50 mM MOPS, 1 mM DTT, pH7.2), mixed, and incubated in black 384 well polystyrene plates for 1 hour at room temperature. ADPGlo™ reagent was then added for 40 minutes, followed by kinase detection reagent for an additional 40 minutes. The kinase activity was evaluated by detecting relative light units on a luminescence plate reader. Samples were run in duplicate from 10 μM to 3 nM. […] IC50 values were calculated from concentration vs % inhibition curves by fitting to a four-parameter logistic curve.
as §1, with “The” for “PIKfyve Biochemical Assay. The”, “ADP-Glo™” for “ADPGlo™”, “uM” for “μM”, “curve. […]” for “curve.”

full-length human PIKFYVE, sequence (Q9Y2I7 whole entry S696N/L932S/Q995L/T998S/S1033A/Q1183K): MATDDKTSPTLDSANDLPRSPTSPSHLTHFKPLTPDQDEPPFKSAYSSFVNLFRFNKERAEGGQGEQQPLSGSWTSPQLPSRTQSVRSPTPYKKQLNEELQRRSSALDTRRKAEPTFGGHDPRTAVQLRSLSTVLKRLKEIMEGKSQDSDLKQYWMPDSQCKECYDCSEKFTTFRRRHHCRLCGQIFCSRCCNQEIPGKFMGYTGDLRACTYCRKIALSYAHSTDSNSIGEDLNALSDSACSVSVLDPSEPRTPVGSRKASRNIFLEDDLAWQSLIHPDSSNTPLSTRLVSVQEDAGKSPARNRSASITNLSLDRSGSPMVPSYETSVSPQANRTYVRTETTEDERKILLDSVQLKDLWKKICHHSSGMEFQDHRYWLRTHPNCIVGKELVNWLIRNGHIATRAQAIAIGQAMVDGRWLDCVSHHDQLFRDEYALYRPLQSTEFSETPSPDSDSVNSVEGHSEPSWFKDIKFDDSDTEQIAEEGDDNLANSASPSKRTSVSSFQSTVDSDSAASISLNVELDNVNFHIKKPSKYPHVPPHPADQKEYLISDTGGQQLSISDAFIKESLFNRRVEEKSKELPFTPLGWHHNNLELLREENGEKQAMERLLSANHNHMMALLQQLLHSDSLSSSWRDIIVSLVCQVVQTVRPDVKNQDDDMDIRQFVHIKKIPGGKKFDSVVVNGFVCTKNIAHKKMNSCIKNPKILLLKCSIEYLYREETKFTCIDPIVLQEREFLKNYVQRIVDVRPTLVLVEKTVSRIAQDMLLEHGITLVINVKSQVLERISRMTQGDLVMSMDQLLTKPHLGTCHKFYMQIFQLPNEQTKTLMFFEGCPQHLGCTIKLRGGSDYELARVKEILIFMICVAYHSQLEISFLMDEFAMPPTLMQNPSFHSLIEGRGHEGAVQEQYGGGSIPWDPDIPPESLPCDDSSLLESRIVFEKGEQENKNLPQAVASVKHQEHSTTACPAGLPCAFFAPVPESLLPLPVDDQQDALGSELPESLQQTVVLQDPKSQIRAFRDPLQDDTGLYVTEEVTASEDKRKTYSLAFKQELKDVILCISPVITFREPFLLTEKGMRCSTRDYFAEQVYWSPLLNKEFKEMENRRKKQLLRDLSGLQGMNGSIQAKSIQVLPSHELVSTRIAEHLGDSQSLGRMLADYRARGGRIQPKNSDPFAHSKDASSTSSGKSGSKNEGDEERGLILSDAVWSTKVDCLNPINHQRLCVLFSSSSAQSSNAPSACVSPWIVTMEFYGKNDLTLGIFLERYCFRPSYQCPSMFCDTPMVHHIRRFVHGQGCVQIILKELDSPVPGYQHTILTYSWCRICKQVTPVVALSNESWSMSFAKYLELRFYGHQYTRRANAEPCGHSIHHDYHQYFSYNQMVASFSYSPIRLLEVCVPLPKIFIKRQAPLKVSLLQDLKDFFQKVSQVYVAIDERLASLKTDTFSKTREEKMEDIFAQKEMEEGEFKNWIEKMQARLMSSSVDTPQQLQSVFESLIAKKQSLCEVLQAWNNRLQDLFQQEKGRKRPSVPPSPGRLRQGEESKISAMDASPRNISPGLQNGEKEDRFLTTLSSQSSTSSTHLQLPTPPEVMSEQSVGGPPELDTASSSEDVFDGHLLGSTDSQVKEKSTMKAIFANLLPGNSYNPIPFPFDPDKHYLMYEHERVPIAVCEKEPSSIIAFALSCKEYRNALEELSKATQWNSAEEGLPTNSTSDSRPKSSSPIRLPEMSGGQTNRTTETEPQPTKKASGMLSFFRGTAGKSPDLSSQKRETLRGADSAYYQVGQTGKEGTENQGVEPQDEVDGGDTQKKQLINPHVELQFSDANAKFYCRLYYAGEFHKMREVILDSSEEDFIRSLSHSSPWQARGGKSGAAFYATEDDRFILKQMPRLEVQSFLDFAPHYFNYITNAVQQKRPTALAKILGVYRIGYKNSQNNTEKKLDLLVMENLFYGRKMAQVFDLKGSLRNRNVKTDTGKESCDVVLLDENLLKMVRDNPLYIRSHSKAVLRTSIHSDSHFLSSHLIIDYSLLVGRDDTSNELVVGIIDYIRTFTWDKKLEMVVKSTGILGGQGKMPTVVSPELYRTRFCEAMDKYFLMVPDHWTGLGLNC

IC50	Structure (SMILES)
< 10 nM	Cn1c(-c2ccncc2)nc2c(N3CCOCC3)nc(C3CC3)nc21 [Compound 110, 4-(2-cyclopropyl-9-methyl-8-(pyridin-4-yl)-9H-purin-6-yl)morpholine]
10 to 100 nM	Cn1c(-c2ccncc2)nc2c(N3CCOCC3)nc(-c3ccnc(C4CC4)n3)nc21 [Compound 97, 4-(2-(2-cyclopropylpyrimidin-4-yl)-9-methyl-8-(pyridin-4-yl)-9H-purin-6-yl)morpholine]
< 10 nM	CN1Cc2ccc(-c3nc(N4CCOCC4)c4nc(-c5ccncc5)n(C)c4n3)cc2C1=O [Compound 107, 2-methyl-6-(9-methyl-6-morpholino-8-(pyridin-4-yl)-9H-purin-2-yl)isoindolin-1-one]
10 to 100 nM	c1ccc(-c2nc(-c3nc(N4CCOCC4)c4nc(-c5ccncc5)[nH]c4n3)no2)cc1 [Compound 109, 4-(2-(5-phenyl-1,2,4-oxadiazol-3-yl)-8-(pyridin-4-yl)-9H-purin-6-yl)morpholine]
100 to 1000 nM	CC1CC(c2cccc(-c3nc(N4CCOCC4)c4nc(-c5ccncc5)n(C)c4n3)n2)CCN1 (stereo not shown) [Compound 91, 4-(9-methyl-2-(6-(2-methylpiperidin-4-yl)pyridin-2-yl)-8-(pyridin-4-yl)-9H-purin-6-yl)morpholine]
100 to 1000 nM	Cn1c(-c2ccncc2)nc2c(N3CCOCC3)nc(-c3ccnc(C4CCCNC4)n3)nc21 (stereo not shown) [Compound 95, 4-(9-methyl-2-(2-(piperidin-3-yl)pyrimidin-4-yl)-8-(pyridin-4-yl)-9H-purin-6-yl)morpholine]
10 to 100 nM	Cn1c(-c2ccncc2)nc2c(N3CCOCC3)nc(-n3cc(-c4ccncc4)cn3)nc21 [Compound 93, 4-(9-methyl-8-(pyridin-4-yl)-2-(4-(pyridin-4-yl)-1H-pyrazol-1-yl)-9H-purin-6-yl)morpholine]
10 to 100 nM	c1ccc(-c2nccc(-c3nc(N4CCOCC4)c4cc(-c5ccncc5)sc4n3)n2)cc1 [Compound 122]
100 to 1000 nM	c1ccc(-c2nccc(-c3nc(N4CCOCC4)c4sc(-c5ccncc5)nc4n3)n2)cc1 [Compound 125]
100 to 1000 nM	CS(=O)(=O)N1CCN(Cc2cc3c(N4CCOCC4)nc(-c4cccc5[nH]ncc45)nc3s2)CC1 [Compound 117]
< 10 nM	Cn1c(-c2ccncc2)nc2c(N3CCOCC3)nc(-n3ccc(C(F)(F)F)n3)nc21 [Compound 100, 4-(9-methyl-8-(pyridin-4-yl)-2-(3-(trifluoromethyl)-1H-pyrazol-1-yl)-9H-purin-6-yl)morpholine]
10 to 100 nM	Cn1c(-c2ccncc2)nc2c(N3CCOCC3)nc(-c3cccnc3)nc21 [Compound 104, 4-(9-methyl-2-(pyridin-3-yl)-8-(pyridin-4-yl)-9H-purin-6-yl)morpholine]
10 to 100 nM	Cn1c(-c2ccncc2)nc2c(N3CCOCC3)nc(-n3cc(-c4ccccc4)cn3)nc21 [Compound 92, 4-(9-methyl-2-(4-phenyl-1H-pyrazol-1-yl)-8-(pyridin-4-yl)-9H-purin-6-yl)morpholine]
10 to 100 nM	Cn1c(-c2ccncc2)nc2c(N3CCOCC3)nc(-c3ccc4c(c3)OCO4)nc21 [Compound 99, 4-(2-(benzo[d][1,3]dioxol-5-yl)-9-methyl-8-(pyridin-4-yl)-9H-purin-6-yl)morpholine]
< 10 nM	Cc1cccc(/C=N/Nc2nc(N3CCOCC3)c3nc(-c4ccncc4)oc3n2)c1 [Compound 120]
< 10 nM	Cc1cccc(/C=N/Nc2nc(N3CCOCC3)c3nc(-c4ccncc4)sc3n2)c1 [Compound 121]
10 to 100 nM	Cn1c(-c2ccncc2)nc2c(N3CCOCC3)nc(-c3ccnc(C(F)(F)F)n3)nc21 [Compound 94, 4-(9-methyl-8-(pyridin-4-yl)-2-(2-(trifluoromethyl)pyrimidin-4-yl)-9H-purin-6-yl)morpholine]
< 10 nM	Cn1c(-c2ccncc2)nc2c(N3CCOCC3)nc(-c3ccc4c(c3)NCCC4)nc21 [Compound 114, 4-(9-methyl-8-(pyridin-4-yl)-2-(1,2,3,4-tetrahydroquinolin-7-yl)-9H-purin-6-yl)morpholine]

Further lines, the compound ahead of its results:

Structure (SMILES)	IC50
Cn1c(C2CNC2)nc2c(N3CCOCC3)nc(-n3ccc(-c4ccccc4)n3)nc21 [Compound 83, 4-(8-(azetidin-3-yl)-9-methyl-2-(3-phenyl-1H-pyrazol-1-yl)-9H-purin-6-yl)morpholine]	10 to 100 nM
Cn1c(-c2ccncc2)nc2c(N3CCOCC3)nc(-n3ccc(C4CCNC4)n3)nc21 (stereo not shown) [Compound 38]	100 to 1000 nM
Cn1c(-c2ccncc2)nc2c(N3CCOCC3)nc(-c3cc[nH]n3)nc21 [Compound 49]	10 to 100 nM
Cn1c(C2CN(C(=O)OC(C)(C)C)C2)nc2c(N3CCOCC3)nc(-n3ccc(-c4ccccc4)n3)nc21 [Compound 13, tert-butyl 3-(9-methyl-6-morpholino-2-(3-phenyl-1H-pyrazol-1-yl)-9H-purin-8-yl)azetidine-1-carboxylate]	10 to 100 nM
Cn1c(-c2ccncc2)nc2c(N3CCOCC3)nc(-n3nc(C4CCCCC4)[nH]c3=O)nc21 [Compound 50, 3-cyclohexyl-1-[9-methyl-6-(morpholin-4-yl)-8-(pyridin-4-yl)-9H-purin-2-yl]-4,5-dihydro-1H-1,2,4-triazol-5-one]	100 to 1000 nM
Cn1c(-c2ccncc2)nc2c(N3CCOCC3)nc(-n3ccc(C4CCNCC4)n3)nc21 [Compound 21]	10 to 100 nM
Cn1c(-c2ccncc2)nc2c(N3CCOCC3)nc(-c3noc(C4CCCN(C(=O)OC(C)(C)C)C4)n3)nc21 (stereo not shown) [Compound 33, tert-butyl 3-{3-[9-methyl-6-(morpholin-4-yl)-8-(pyridin-4-yl)-9H-purin-2-yl]-1,2,4-oxadiazol-5-yl}piperidine-1-carboxylate]	100 to 1000 nM
Cn1c(C2=CCOCC2)nc2c(N3CCOCC3)nc(-n3ccc(-c4ccccc4)n3)nc21 [Compound 14]	10 to 100 nM
Cn1c(C2CCOCC2)nc2c(N3CCOCC3)nc(-c3noc(-c4ccccc4)n3)nc21 [Compound 89, 4-(9-methyl-2-(5-phenyl-1,2,4-oxadiazol-3-yl)-8-(tetrahydro-2H-pyran-4-yl)-9H-purin-6-yl)morpholine]	100 to 1000 nM
CN1CCCC(c2ccn(-c3nc(N4CCOCC4)c4nc(C5CCOCC5)n(C)c4n3)n2)C1 (stereo not shown) [Compound 15]	1000 to 10000 nM
Cn1c(-c2ccncc2)nc2c(N3CCOCC3)nc(-c3ccnn3C3CCCN(C(=O)OC(C)(C)C)C3)nc21 (stereo not shown) [Compound 42]	100 to 1000 nM
Cn1c(-c2ccncc2)nc2c(N3CCOCC3)nc(-n3ccc(C4CCCNC4)n3)nc21 (stereo not shown) [Compound 17]	100 to 1000 nM
Cn1c(-c2ccncc2)nc2nc(-c3ccnc(-c4ccccc4)n3)nc(N3CCOCC3)c21 [Compound 2, 7-methyl-6-(morpholin-4-yl)-2-(2-phenylpyrimidin-4-yl)-8-(pyridin-4-yl)-7H-purine]	1000 to 10000 nM
Cn1c(C2CCNC2)nc2c(N3CCOCC3)nc(-n3ccc(-c4ccccc4)n3)nc21 (stereo not shown) [Compound 90, 4-(9-Methyl-2-(3-phenyl-1H-pyrazol-1-yl)-8-(pyrrolidin-3-yl)-9H-purin-6-yl)morpholine]	10 to 100 nM
Cn1c(-c2ccncc2)nc2c(N3CCOCC3)nc(-c3noc(C4CCCNC4)n3)nc21 (stereo not shown) [Compound 31]	100 to 1000 nM
Cn1c(C2CCCNC2)nc2c(N3CCOCC3)nc(-n3ccc(-c4ccccc4)n3)nc21 (stereo not shown) [Compound 10]	100 to 1000 nM
Cn1c(C2CCOCC2)nc2c(N3CCOCC3)nc(-n3ccc(-c4cncnc4)n3)nc21 [Compound 20]	1000 to 10000 nM
Cn1c(-c2ccncc2)nc2c(N3CCOCC3)nc(-c3ccn(C4CCCNC4)n3)nc21 (stereo not shown) [Compound 41]	100 to 1000 nM
Cn1c(C2CCOCC2)nc2c(N3CCOCC3)nc(-n3ccc(-c4ccccc4)n3)nc21 [Compound 12]	100 to 1000 nM
Cn1c(C2CCOCC2)nc2c(N3CCOCC3)nc(-n3ccc(C4CCCNC4)n3)nc21 (stereo not shown) [Compound 16]	1000 to 10000 nM
Cn1c(-c2ccncc2)nc2c(N3CCOCC3)nc(-n3ccc(C4CC5(CNC5)C4)n3)nc21 [Compound 35]	10 to 100 nM
Cn1c(-c2ccncc2)nc2c(N3CCOCC3)nc(-c3cccc(C4CCN(C(=O)OC(C)(C)C)CC4)n3)nc21 [Compound 4]	100 to 1000 nM
Cn1ccc(-c2nc(N3CCOCC3)c3nc(-c4ccncc4)n(C)c3n2)n1 [Compound 48]	100 to 1000 nM
c1cc(-c2nc3c(N4CCOCC4)nc(-n4ccc(C5CCCNC5)n4)nc3[nH]2)ccn1 (stereo not shown) [Compound 22]	10 to 100 nM
Cn1c(-c2ccncc2)nc2c(N3CCOCC3)nc(-n3ccc(C4CCN(C(=O)OC(C)(C)C)C4)n3)nc21 (stereo not shown) [Compound 40]	100 to 1000 nM
Cn1c(-c2ccncc2)nc2c(N3CCOCC3)nc(-c3cccc4c3OCCO4)nc21 [Compound 44]	100 to 1000 nM
Cn1c(C2CCOCC2)nc2c(N3CCOCC3)nc(-n3ccc(-c4cccnc4)n3)nc21 [Compound 19, 4-(9-methyl-2-(3-(pyridin-3-yl)-1H-pyrazol-1-yl)-8-(tetrahydro-2H-pyran-4-yl)-9H-purin-6-yl)morpholine]	1000 to 10000 nM

same assay, conditions: values plotted in FIG. 7; read-out: PIKFYVE Biochemistry (IC50)

Structure (SMILES)	IC50
O=c1ccn(Cc2nc(N3CCOCC3)cc(-n3nccc3-c3ccccc3)n2)cc1	> 10000 nM
